Reference: patent US20170266237A1, “Generation of Brown Adipose Tissue (BAT) from Mesenchymal Cells” (National University of Singapore, priority 2012, published 2017)

What was measured:
Type in all cases: cell-based, human
[1] = test system: adipogenically induced mesenchymal stem cells; assay: Nile Red adherent cytometry of cytoplasmic lipid accumulation / lipolysis; details: for lipolysis after isoproterenol (emptying of lipid droplets): 16 hrs of 5 μM isoproterenol, white and brown adipogenically induced MSCs
Description: b) Adipogenic Induction of Mesenchymal Stem Cells (MSC). MSCs were seeded at an initial density of about 10.5×10^4 cells/cm^2 in well plates and grown to confluence. Adipogenic differentiation was induced via three cycles of 4 days of induction, followed by 3 days of maintenance. The basal media used in the differentiation process composed of high glucose Dulbecco's modified Eagle's medium (HG DMEM, Gibco) supplemented with Glutamax, 10% fetal bovine serum, 100 units/ml penicillin and […] streptomycin The standard white adipogenic induction media is supplemented with 3-isobutyl-1methylxanthine (0.5 mM), indomethacin (0.2 mM), dexamethasone (1 μM) and insulin (10 μg/ml). For brown adipocyte differentiation, cells were pre-treated with BMP7 (R&D Systems 354-BP, 125 ng/ml) 3 days prior to induction. The brown adipogenic induction media is supplemented with 3-isobutyl-lmethylxanthine (0.5 mM), indomethacin (0.2 mM), dexamethasone (1 μM), insulin (10 μg/ml), triiodothyronine (1 nM) and Rosiglitazone (1 μM). Basal media alone was used during the maintenance phase. For conditions treated with macromolecular crowding (+MMC), a cocktail of macromolecules (+MMC), consisting of Ficoll 70 (37.5 mg/ml) and Ficoll 400 (25 mg/ml) was added to the basal media (High glucose DMEM, Gibco) throughout the differentiation process (during both induction and maintenance phases).
c) Stimulation with forskolin or isoproterenol. After the 3-week adipogenic differentiation, cells were incubated with 10 μM forskolin (Sigma) or 5 μM isoproterenol (Sigma) for 4 h or 16 h before analysis, to mimic nor-adrenergic stimulation in culture.
d) Nile Red Adherent Cytometry to assess area of cytoplasmic lipid accumulation. After 21 days (corresponding to three complete induction cycles), cell cultures were rinsed with PBS, fixed in 4% formaldehyde (10 min; RT) then co-stained for 30 min with Nile Red (Sigma-Aldrich; 5 μg/ml), for cytoplasmic lipid droplets and 4′,6-diamidino-2-phenylindole (DAPI; 0.5 μg/ml) for nuclear DNA as described previously. Adherent fluorescent cytometry was based on 9 sites per well imaged with a coolSNAP HQ camera attached to a Nikon TE2000 microscope at 2× magnification, covering 83% of total well area. Nile Red was viewed under a rhodamine filter [Ex572 nm/Em630 nm] while DAPI fluorescence was assessed with a DAPI filter [Ex350 nm/Em465 nm]. Measured Nile Red events were thresholded and measured by an image analysis software (MetaMorph 6.3v3). Extent of adipogenic differentiation was quantified by area of Nile Red fluorescence from thresholded events normalized to nuclei count based on detected DAPI fluorescence. End data corresponded to total area of lipid droplets present per well relative to cell number.

[2] = test system: UCP1 mRNA; assay: Quantitative PCR of UCP1 mRNA after forskolin stimulation of adipogenically induced MSCs; details: adipogenically induced MSCs stimulated with forskolin
Description: b) Adipogenic Induction of Mesenchymal Stem Cells (MSC). MSCs were seeded at an initial density of about 10.5×10^4 cells/cm^2 in well plates and grown to confluence. Adipogenic differentiation was induced via three cycles of 4 days of induction, followed by 3 days of maintenance. The basal media used in the differentiation process composed of high glucose Dulbecco's modified Eagle's medium (HG DMEM, Gibco) supplemented with Glutamax, 10% fetal bovine serum, 100 units/ml penicillin and […] streptomycin The standard white adipogenic induction media is supplemented with 3-isobutyl-1methylxanthine (0.5 mM), indomethacin (0.2 mM), dexamethasone (1 μM) and insulin (10 μg/ml). For brown adipocyte differentiation, cells were pre-treated with BMP7 (R&D Systems 354-BP, 125 ng/ml) 3 days prior to induction. […]
(§1) e) Quantitative PCR to assess expression of pan-adipocyte and brown adipocyte genes. […] Real time quantitative polymerase chain reactions (RT-PCR) were performed and monitored on a real-time PCR instrument (Stratagene) using Maxima™ SYBR Green/ROX qPCR Master Mix (K0222, Fermentas). […] Relative gene expression levels were determined using the ΔΔ-Ct method with the geometric mean of human TATA-box binding protein (TBP) and ribosomal phosphoprotein P0 (RPLP0) levels as an endogenous control.

[3] = test system: UCP1 mRNA; assay: Quantitative PCR of UCP1 mRNA expression in adipogenically induced MSCs; details: 3-week adipogenic induction of MSCs
Description: a) Mesenchymal Stem Cell Culture. Human bone-marrow derived mesenchymal stem cells (MSCs) were obtained commercially (Cambrex) at passage 2 (p2) and cultured in a basic culture medium composed of low glucose Dulbecco's modified Eagle's medium (LG DMEM, Gibco) supplemented with Glutamax, 10% fetal bovine serum, 100 units/ml penicillin and […] streptomycin. Cells were maintained at 37° C. in a humidified atmosphere of 5% CO2, with medium change twice per week. To prevent spontaneous differentiation, cells were maintained at subconfluent levels prior to being detached using TrypLE™ Express (Gibco), passaged at 1:3 and cultured to generate subsequent passages. Directed differentiation was carried out with cells between passage 6 (p6) and 8 (p8).
b) Adipogenic Induction of Mesenchymal Stem Cells (MSC). […]
as §1

For CC(C)NCC(O)c1ccc(O)c(O)c1 (stereo not drawn) [isoproterenol], the “lipolysis after isoproterenol (emptying of lipid droplets)” value [1] was “leads to emptying of lipid droplets” and the “lipolysis after isoproterenol (emptying of lipid droplets)” value ([1]; listed as Isoproterenol) was “stronger lipolytic effect on adipocytes that had been differentiated under a BAT induction protocol”.

In the case of C=C[C@@]1(C)CC(=O)[C@]2(O)[C@@]3(C)[C@@H](O)CCC(C)(C)[C@@H]3[C@H](O)[C@H](OC(C)=O)[C@@]2(C)O1 [forskolin], the “additional UCP1 mRNA upregulation on forskolin stimulation” value [2] is reported as 10 fold, the “reduction of Nile Red positive area (factor)” value ([1]; brown induction protocol, 16 hrs after forskolin stimulus) is reported as 2.14 and the “reduction of hypothetical triglyceride volume (factor)” value ([1]; modeled as sphere, brown induced MSCs under crowding, after forskolin treatment) is reported as 3.

B1: BMP7: bone morphogenetic protein, R&D Systems 354-BP, 125 ng/ml pre-treatment 3 days prior to induction (protein, UniProt P18075 293-431, looked up)
Bone morphogenetic protein 7: STGSKQRSQNRSKTPKNQEALRMANVAENSSSDQRQACKKHELYVSFRDLGWQDWIIAPEGYAAYYCEGECAFPLNSYMNATNHAIVQTLVHFINPETVPKPCCAPTQLNAISVLYFDDSSNVILKKYRNMVVRACGCH
For B1, the “effect on UCP1 mRNA expression (in words)” value [3] was “only modestly increases”.
